Measurements: the NIST ThermoML archive (doi:10.1021/je7003758)
± gives the expanded uncertainty stated by the source.

Assay: xn = mol fraction of the nth substance listed
Conditions: 298.15 K, Liquid

CCCCCCCl [1-chlorohexane] + CN1CCCC1=O
mass density [kg/m3]
Conditions	x2 = 0.1003	x2 = 0.1988	x2 = 0.305	x2 = 0.4005	x2 = 0.5007	x2 = 0.5974	x2 = 0.7016	x2 = 0.8002	x2 = 0.8995
10000 kPa	–	–	–	931.4 ± 0.6	945.7 ± 0.5	960.5 ± 0.5	–	994.5 ± 0.3	1012.9 ± 0.4
10500 kPa	893.2 ± 0.8	905.1 ± 0.8	918.8 ± 0.7	931.7 ± 0.6	946 ± 0.5	960.8 ± 0.5	978 ± 0.4	994.8 ± 0.3	1013.2 ± 0.4
11000 kPa	893.5 ± 0.9	905.4 ± 0.8	919.2 ± 0.7	932.1 ± 0.6	946.4 ± 0.6	961.1 ± 0.5	978.3 ± 0.4	995.1 ± 0.3	1013.5 ± 0.4
11400 kPa	893.9 ± 0.9	–	–	–	–	961.4 ± 0.5	–	–	–
11500 kPa	–	905.8 ± 0.8	919.6 ± 0.7	932.4 ± 0.6	946.8 ± 0.6	–	978.6 ± 0.4	995.4 ± 0.3	1013.8 ± 0.4
11900 kPa	–	–	–	–	947 ± 0.6	–	978.9 ± 0.4	–	–
12000 kPa	894.3 ± 0.9	906.2 ± 0.8	919.9 ± 0.7	932.8 ± 0.6	–	961.8 ± 0.5	–	995.7 ± 0.3	1014 ± 0.4
12400 kPa	–	906.5 ± 0.8	–	–	–	–	–	995.9 ± 0.3	1014.2 ± 0.4
12500 kPa	894.7 ± 0.9	–	920.2 ± 0.7	933.1 ± 0.6	947.3 ± 0.6	962.2 ± 0.5	–	–	–
12600 kPa	–	–	–	–	–	–	979.2 ± 0.4	–	–
12900 kPa	–	–	–	–	–	–	979.4 ± 0.4	–	–
13000 kPa	895.1 ± 0.9	907.1 ± 0.8	920.6 ± 0.7	933.4 ± 0.7	947.7 ± 0.6	962.4 ± 0.5	–	996.3 ± 0.3	1014.5 ± 0.4
13400 kPa	–	907.3 ± 0.8	–	–	948 ± 0.6	–	979.7 ± 0.4	996.5 ± 0.3	–
13500 kPa	895.5 ± 0.9	–	921 ± 0.7	933.8 ± 0.7	–	962.6 ± 0.5	–	–	1014.8 ± 0.4
13900 kPa	–	–	–	–	948.3 ± 0.6	–	–	–	–
14000 kPa	895.9 ± 0.9	907.7 ± 0.8	921.3 ± 0.7	934.1 ± 0.7	–	963.1 ± 0.5	980.1 ± 0.4	996.8 ± 0.3	1015.1 ± 0.4
14400 kPa	–	–	921.6 ± 0.8	934.4 ± 0.7	–	–	–	–	–
14500 kPa	896.3 ± 0.9	908 ± 0.8	–	–	948.6 ± 0.6	963.4 ± 0.5	980.3 ± 0.4	997.1 ± 0.3	1015.4 ± 0.4
15000 kPa	896.6 ± 0.9	908.4 ± 0.9	922 ± 0.8	934.8 ± 0.7	949 ± 0.6	963.7 ± 0.5	980.7 ± 0.4	997.4 ± 0.3	1015.6 ± 0.4
15400 kPa	896.9 ± 0.9	–	–	–	–	–	–	–	–
15500 kPa	–	908.7 ± 0.9	922.3 ± 0.8	935.1 ± 0.7	949.3 ± 0.6	964 ± 0.5	981 ± 0.4	997.6 ± 0.3	1015.8 ± 0.4
15900 kPa	–	–	–	–	–	964.2 ± 0.5	–	–	–
16000 kPa	897.4 ± 1	909 ± 0.9	922.7 ± 0.8	935.4 ± 0.7	949.6 ± 0.6	–	981.3 ± 0.4	–	1016.1 ± 0.4
16100 kPa	–	–	–	–	–	–	–	998 ± 0.3	–
16500 kPa	897.7 ± 1	909.4 ± 0.9	923 ± 0.8	935.7 ± 0.7	949.9 ± 0.6	964.6 ± 0.5	981.5 ± 0.4	998.2 ± 0.3	1016.4 ± 0.4
16900 kPa	–	909.7 ± 0.9	–	–	–	964.8 ± 0.5	–	–	1016.6 ± 0.4
17000 kPa	898 ± 1	–	923.4 ± 0.8	936 ± 0.7	950.2 ± 0.6	–	981.8 ± 0.4	998.4 ± 0.3	–
17400 kPa	–	–	–	–	950.5 ± 0.6	–	982 ± 0.4	–	–
17500 kPa	898.4 ± 1	910.1 ± 0.9	923.6 ± 0.8	–	–	965.1 ± 0.5	–	998.8 ± 0.3	1016.9 ± 0.4
17600 kPa	–	–	–	936.5 ± 0.7	–	–	–	–	–
18000 kPa	898.8 ± 1	910.5 ± 0.9	924 ± 0.8	936.7 ± 0.7	950.8 ± 0.6	965.4 ± 0.5	982.3 ± 0.4	999 ± 0.3	1017.1 ± 0.4
18400 kPa	–	–	–	937 ± 0.7	951.1 ± 0.6	–	–	–	–
18500 kPa	899.1 ± 1	910.9 ± 0.9	924.3 ± 0.8	–	–	965.7 ± 0.5	982.7 ± 0.4	999.2 ± 0.3	–
18700 kPa	–	–	–	–	–	–	–	–	1017.5 ± 0.4
19000 kPa	899.5 ± 1	911.3 ± 0.9	924.7 ± 0.8	937.4 ± 0.7	951.5 ± 0.6	966 ± 0.5	983 ± 0.4	999.6 ± 0.3	1017.8 ± 0.4
19500 kPa	899.8 ± 1	911.6 ± 0.9	925 ± 0.8	937.8 ± 0.7	951.8 ± 0.6	966.3 ± 0.5	983.3 ± 0.4	999.8 ± 0.3	1017.9 ± 0.4
20000 kPa	900.3 ± 1	912 ± 0.9	925.4 ± 0.8	938.2 ± 0.7	952.2 ± 0.6	966.7 ± 0.5	983.8 ± 0.4	1000.2 ± 0.3	1018.3 ± 0.4
